# Results from EP0029697A1, “Pharmaceutical compositions for the treatment of neoplastic diseases and process therefor” (Gosalvez, Mario Gosalvez, priority 1979, dated 1981).
# Experiments:
# [1] = tested on: advanced metastastic bladder cancer; test: Clinical trial in patients with advanced metastatic bladder cancer; type: in vivo, humans
# Procedure: Clinical trials with 2-amino-2-thiazoline hydrochloride have been conducted on 9 patients suffering from advanced metastastic bladder cancer, not amenable to any other treatment.
# Only patients with measurable and progressing bladder tumors and lung metastases the growth rate of which was measured weekly in X-ray plates for serveral weeks before beginning the treatment were admitted to the trial. The development of the bladder tumors was measured by cytos- copy after biopsy.
# Each of the patients were intravenously administered 2-amino-2-thiazoline-hydrochloride, as an aqueous solution (25-75 mg/ml) at the dose of 1.5 mg/kg of body weight on a daily basis per 5 days, every three weeks (the first 5 patients), and at dose of 3 mg/kg daily per 5 days every three weeks (the following 4 patients).
# Toxicity to humans = type: in vivo; conditions: doses up to at least 100 mg/kg
# Procedure: 2-amino-2-thiazoline and 2-amino-2-thiazoline hydrochloride are also non-toxic to humans in doses up to at least 100 mg/kg. Therefore, the dosage administered can vary over a wide range, without concern that undesirable side-effects will result from large dosages.
# [2] = tested on: tumors of various origins; test: Preliminary clinical trial in tumors of various origins; type: in vivo
# Description: (§1) The preceding description is but illustrative of the practice of the invention and it is to be understood that other expedients may be employed by those skilled in the art without departure from the scope of the invention. Data on human tumors have been provided for bladder cancer because in a preliminary study of the biochemical affinity of 2-amino-2-thiazoline with tumor membrane receptors, the affinity with the bladder tumor receptor was very high. […] Therefore, it is claimed that 2-amino-2-thiazoline is an antitumor agent for mammalian cancer acting without toxicity by inducing reverse transformation.
# Hela cells = test: Restoration of contact inhibition in colonies of Hela cells; type: cell-based, human
# Procedure: Hela cells, a type of cell derived from human uterine tumor, were seeded in Eagle culture flasks at the concentration of 50 cells/cm^2. The cells were allowed to develop colonies during a period of 10 days with two changes of the medium on the second and sixth day. A tissue culture (minimum essential medium of Eagle with 10% calf serum) comprising amino acids, vitamins and glucose was employed.
# 2-Amino-2-thiazoline, obtained by treatment of the hydrochloride with a molar equivalent of sodium hydroxide, was added to the medium at varying concentrations on both the second day and the sixth day, after the initiation of the culture. A total of 3 flasks containing the cultured colonies were used for each concentration of 2-amino-2-thiazoline employed. On the tenth day, the cells were fixed in neutral formol and were stained with hematoxyline. A total of 500 colonies of the same size in each flask were counted at random and the percentage of colonies with contact inhibition (planar morphology) or without contact inhibition (pyrimidal or acuminated morphology) were noted.
# Lewis Lung carcinoma = test: Effect on mouse tumors: survival time, Lewis Lung carcinoma; type: in vivo; conditions: mice inoculated with Lewis Lung carcinoma
# Procedure: (§2) The effect of 2-amino-2-thiazoline on mouse tumors (le'ukemia 1210 and Lewis Lung carcinoma) was also tested. […] However, it is knwon that the cells associated with those tumors are extremely undifferentiated from normal cells so as to have lost all or nearly all of the cytoskeletal system of contractile microfilaments. Such cells would be expected to be insensitive to agents which induce reverse transformation. Leukemia 1210 and Lewis Lung carcinoma are transplantable tumors and, upon transplantation, they have lost the tissue specific membrane receptors which are the target of 2-amino-2-thiazoline.
# Leukemia 1210 = test: Effect on mouse tumors: survival time, leukemia 1210; type: in vivo; conditions: mice inoculated with leukemia 1210
# Procedure: as §2
# bladder tumor receptor = test: Preliminary study of biochemical affinity with tumor membrane receptors (bladder); type: binding
# Description: as §1
# [3] = tested on: other tumor receptors of different tissue origin; test: Preliminary study of biochemical affinity with tumor membrane receptors (other tissues); type: binding
# Description: as §1
# [4] = patient 1, bladder carcinoma, lesion lung and bladder, total dose 2.5 gr, i.v. 1.5 mg/kg daily per 5 days every three weeks
# [5] = patient 2, bladder carcinoma, lesion lung and bladder, total dose 3.2 gr, i.v. 1.5 mg/kg daily per 5 days every three weeks
# [6] = patient 3, bladder carcinoma, lesion lung and bladder, total dose 2.8 gr, i.v. 1.5 mg/kg daily per 5 days every three weeks
# [7] = patient 4, bladder carcinoma, lesion bladder, total dose 3.7 gr, i.v. 1.5 mg/kg daily per 5 days every three weeks
# [8] = patient 5, bladder carcinoma, lesion lung and bladder, total dose 4.9 gr, i.v. 1.5 mg/kg daily per 5 days every three weeks
# [9] = patient 6, bladder carcinoma, lesion bladder, total dose 12 gr, i.v. 3 mg/kg daily per 5 days every three weeks
# [10] = patient 7, bladder carcinoma, lesion lung and bladder, total dose 9.6 gr, i.v. 3 mg/kg daily per 5 days every three weeks
# [11] = patient 8, bladder carcinoma, lesion lung and bladder, total dose 11.8 gr, i.v. 3 mg/kg daily per 5 days every three weeks
# [12] = patient 9, bladder carcinoma, lesion lung and bladder, total dose 10.8 gr, i.v. 3 mg/kg daily per 5 days every three weeks
# [13] = 1 μMol, added on day 2 and day 6, read on day 10
# [14] = 2 μMol, added on day 2 and day 6, read on day 10
# [15] = 5 μMol, added on day 2 and day 6, read on day 10
# [16] = 10 μMol, added on day 2 and day 6, read on day 10
# [17] = 20 μMol, added on day 2 and day 6, read on day 10
compound,measurement,setting,value
"Cl.NC1=NCCS1 [2-Amino-2-thiazoline·HCl, 2-amino-2-thiazoline hydrochloride]",Toxicity,"[1]; all 9 patients, i.v. 1.5 or 3 mg/kg daily per 5 days every three weeks",None of the patients showed any toxicity
same,objective responses (mor than 50% reduction of tumor size),"[1]; number of responders out of the 9 cases, combined area of lung metastasis and size of the cystoscopic lesion",4
same,Response,[1]; [4],complete remission
same,Toxicity,[1]; [4],none
same,Response,[1]; [5],partial remission
same,Toxicity,[1]; [5],none
same,Response,[1]; [6],complete remission
same,Toxicity,[1]; [6],none
same,Response,[1]; [7],stabilization
same,Toxicity,[1]; [7],none
same,Response,[1]; [8],stabilization
same,Toxicity,[1]; [8],none
same,Response,[1]; [9],complete remission
same,Toxicity,[1]; [9],none
same,Response,[1]; [10],complete remission
same,Toxicity,[1]; [10],none
same,Response,[1]; [11],stabilization
same,Toxicity,[1]; [11],none
same,Response,[1]; [12],stabilization
same,Toxicity,[1]; [12],none
same,Toxicity,Toxicity to humans,non-toxic
NC1=NCCS1 [2-Amino-2-thiazoline],clinical response,[2],stabilization and minor remissions
same,Colonies without contact inhibition,Hela cells; [13],42%
same,Total number of colonies,Hela cells; [13],100%
same,Colonies with contact inhibition,"Hela cells; 1 μMol, added on day 2 and day 6, read on day 10, 500 colonies per flask",58%
same,Colonies with contact inhibition,Hela cells; [14],59%
same,Colonies without contact inhibition,Hela cells; [14],41%
same,Total number of colonies,Hela cells; [14],100%
same,Colonies with contact inhibition,Hela cells; [15],75%
same,Colonies without contact inhibition,Hela cells; [15],25%
same,Total number of colonies,Hela cells; [15],85%
same,Colonies with contact inhibition,Hela cells; [16],86%
same,Colonies without contact inhibition,Hela cells; [16],14%
same,Total number of colonies,Hela cells; [16],75%
same,Colonies with contact inhibition,"Hela cells; 20 μMol (maximum dosage), added on day 2 and day 6, read on day 10",100%
same,Colonies without contact inhibition,Hela cells; [17],0%
same,Total number of colonies,Hela cells; [17],45%
same,increasing the survival time of the mice,Lewis Lung carcinoma,completely inactive
same,increasing the survival time of the mice,Leukemia 1210,completely inactive
same,biochemical affinity with tumor membrane receptors,bladder tumor receptor,very high
same,Toxicity,Toxicity to humans,non-toxic
same,affinity for other tumor receptors,[3],shown affinity
